Assays:
Type in all cases: cell-based, human
U2OS cells = assay: Cell cycle distribution (BrdU, flow cytometry); conditions: highest tested concentration 0.6 μM, 24 h; slight decrease of G1, increase of G2
Experimental: Apoptosis was measured by flow cytometry using the Annexin V FITC assay kit based on the protocol from the manufacturer (Invitrogen). For BrdU (bromodeoxyuridine (5-bromo-2′-deoxyuridine)) analysis, after treatments, cells were labeled with BrdU (Sigma) for 30 min before fixation with 70% cold ethanol (−20 °C). The next day, cells were washed with cold phosphate-buffered saline and incubated with 2 M HCl for 5 min at room temperature. After adjusting the pH with 0.1 M sodium borate (pH 8.5), cells were incubated in 1% bovine serum albumin with 0.1% Triton X-100 for 30 min and mouse anti-BrdU antibody (1:400) for 1 h to detect BrdU labeling. After washing, cells were incubated with secondary antibody (fluorescein isothiocyanate 1:400) for 30 min. […] For fluorescence-activated cell sorting analysis, the percentage of cells with positive BrdU staining in each phase of the cell cycle was quantitated with the CellQuest software and ModFit software (Verity Software House Inc., Topsham, ME, USA).
Figure S7: Cell cycle distribution of U2OS cells upon treatment with NSC-105808. (a) U2OS cells were treated with DMSO or the indicated concentration of NSC-105808 for 24 hrs followed by a pulse of BrdU (10 µM) for 30 minutes and then analyzed by flow cytometry. […] (c) Quantitation of the G1 cell population. […]

[1] = tested on: U2OS cells containing DR-GFP reporter; assay: DR-GFP gene conversion (HR) reporter assay; conditions: 24-h treatment
Experimental: Figure 4 NSC-105808 inhibits HR repair and DSB end resection. (a) Analysis of HR efficiency with the DR-green fluorescent protein (GFP) assay. Representative images of flow cytometry analysis and bar graph showing percentage of GFP cells from at least three independent experiments. Each value represents the mean±s.d. (b, c) Analysis of RPA phosphorylation in U2OS cells treated with NSC-105808 (2 h, 0.3 μM) and/or camptothecin (CPT; 2 h, 1 μM). (b) Representative images of cells subjected to immunofluorescent staining of p-RPA and bar graph showing percentage of cells with positive p-RPA staining from three independent experiments. Each value represents the mean±s.d. (c) Western blot analysis of chromatin fraction with the indicated antibodies. (d) Analysis of colony formation by FANCD2 (+/+) and FANCD2 (−/−) cells treated with cisplatin and/or NSC-105808. Each value is relative to the untreated control group of each cell line. The graph represents the mean±s.e.m. from three independent experiments. *P<0.01.
The DR-green fluorescent protein, pCAGGS and pCBASce plasmids were kindly provided by Dr Maria Jasin (Memorial Sloan-Kettering Cancer Center, New York, NY, USA). […]
The GFP expressing plasmid (pEGFP-C1) was used for transfection efficiency control. […] Efficiency of HR and SSA was calculated by normalizing I-SceI-induced GFP expression with EGFP transfection-induced GFP expression. […]

[2] = tested on: Hs578T and BT549 versus MCF10A cells; assay: MTT proliferation, breast cell lines; conditions: 48-h treatment
Experimental: (§1) Figure 5 Oncogene induction enhances sensitivity of cancer cells to NSC-105808. (a-e) Graphs showing proliferation of indicated cell lines in response to a 48-h treatment with the indicated concentrations of NSC-105808. Proliferation relative to cells treated with vehicle alone was determined by the 3-(4,5-dimethylthiazol-2-yl)-2,5-diphenyltetrazolium bromide (MTT) assay. Each value represents the mean±s.e.m. from three independent experiments. (a) Proliferation of control pancreatic epithelial cells DT-PD59 and transformed pancreatic cancer cells AsPC-1 and PANC-1. (b) Proliferation of normal breast epithelial cells MCF10A and breast cancer cells Hs578T and BT549. (c) Proliferation of MCF10A cells with or without H-Ras expression. H-Ras was induced with doxycycline (2 μg/ml). […]
(§2) Cell proliferation was measured by 3-(4,5-dimethylthiazol-2-yl)-2,5-diphenyltetrazolium bromide (Sigma) reduction (Supplementary Materials and Methods).
(§3) To determine the cell proliferation rate, 1000 cells/well were seeded in a 96-well plate in a total volume of 100 µl in triplicate in each experiment. […] Plates were read at 490 nm and 650 nm (background) in a
(§4) microplate reader (Molecular Devices). After the subtraction of background, cell viability was calculated as fold change relative to control cells.

[3] = tested on: AsPC-1, PANC-1 versus DT-PD59 cells; assay: MTT proliferation, pancreatic cell lines; conditions: 48-h treatment
Experimental: as §1, §2, §3, §4

[4] = tested on: DT-PD77 cells with E6/E7 oncoprotein versus DT-PD59; assay: MTT proliferation, DT-PD59 versus E6/E7 DT-PD77; conditions: 48-h treatment
Experimental: as §1, §2, §3, §4

[5] = tested on: MCF10AT1, MCF10-DCIS, MCF10CA1a versus MCF10A cells; assay: MTT proliferation, MCF10A progression series; conditions: 48-h treatment
Experimental: as §1, §2, §3, §4

With `NC1=C(Br)C(=O)c2ncccc2C1=O` [NSC-105808, 6-amino-7-bromoquinoline-5,8-dione] the “Impact on cell cycle distribution” value (U2OS cells) was “only a mild impact”, the “DSB repair by gene conversion” value [1] was “significantly reduced” and the “Sensitivity of transformed breast cancer cells compared with MCF10A” value [2] was “more sensitive”. The “Sensitivity of transformed pancreatic cancer cell lines compared with non-transformed DT-PD59” value [3] was “more sensitive”, the “Sensitivity in cells with E6/E7 oncoprotein-induced replication stress” value [4] was “higher” and the “Sensitivity of cell lines with oncogene activation compared with MCF10A control” value [5] was “more sensitive”.
